Results taken from patent US20240376124A1, “Macrocyclic Kinase Inhibitors” (Incyte Corporation, priority 2023, published 2024).

Experiments:
[1] = target: T1, pseudo-kinase domain (JH2, amino-acids 536-812) of human Wild Type JAK2 (Homo sapiens, UniProt O60674, F794H/W659A/W777A); test: JAK2 LanthaScreen JH2-WT Binding Assay; settings: 50 nM tracer, read-out: JH2BIND_WT IC50
T1 construct: pseudo-kinase domain (JH2, amino-acids 536-812 with 3 surface mutations W659A, W777A, F794H); His (C); purchased BPS Bioscience 79463; host or cells: baculovirus expression system
T1 sequence (O60674 536-812 W659A/W777A/F794H): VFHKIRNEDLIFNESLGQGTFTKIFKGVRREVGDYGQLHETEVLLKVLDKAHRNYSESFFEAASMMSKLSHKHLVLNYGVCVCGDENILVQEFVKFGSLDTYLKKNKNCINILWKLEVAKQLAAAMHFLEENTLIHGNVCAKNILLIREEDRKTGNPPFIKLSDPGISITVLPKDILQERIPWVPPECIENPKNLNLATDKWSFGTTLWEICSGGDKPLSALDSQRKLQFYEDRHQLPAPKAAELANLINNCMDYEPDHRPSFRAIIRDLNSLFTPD
Procedure: Example B. JAK2 LanthaScreen JH2-WT Binding Assay
(§1) JAK2 JH2-WT binding assay utilizes pseudo-kinase domain (JH2, amino-acids 536-812 with 3 surface mutations W659A, W777A, F794H) of human Wild Type JAK2 expressed as C-terminal His-Avi-tagged, biotinylated protein in a baculovirus expression system (BPS Bioscience, Catalog #79463). The assay was conducted in black 384-well polystyrene plates in a final reaction volume of 20 μL. JAK2 JH2-WT (0.145 nM) was incubated with compounds (100 nL serially diluted in DMSO) in the presence of 50 nM Fluorescent JAK2-JH2 Tracer (MedChem Express Catalog #HY-102055) and 0.25 nM Streptavidin-Tb cryptate (Cisbio Part #610SATLB) in assay buffer (50 mM Tris, pH=7.5, 10 mM MgCl2, 0.01% Brij-35, 0.1% BSA, 1 mM EGTA, 5% Glycerol and 5 mM DTT). Non-specific binding was accessed in the presence of 2 mM ATP. After incubation for 1 hour at 25° C., LanthaScreen signals were read on a PHERAstar FS plate reader (BMG LABTECH). Data was analyzed with IDBS XLfit and GraphPad Prism 5.0 software using a four parameter dose response curve to determine IC50 for each compound.

[2] = target: T2, catalytic domain (JH1, amino acids 826-1132) of human JAK2 (Homo sapiens, UniProt O60674); test: JAK2 LanthaScreen JH1 binding assay; settings: JAK2 JH1, 50 nM tracer; read-out: JH1BIND IC50
T2 construct: catalytic domain (JH1, amino acids 826-1132) of human JAK2; FLAG (N); purchased Carna Biosciences 08-445-20N; host or cells: baculovirus expression system
T2 sequence (O60674 826-1132): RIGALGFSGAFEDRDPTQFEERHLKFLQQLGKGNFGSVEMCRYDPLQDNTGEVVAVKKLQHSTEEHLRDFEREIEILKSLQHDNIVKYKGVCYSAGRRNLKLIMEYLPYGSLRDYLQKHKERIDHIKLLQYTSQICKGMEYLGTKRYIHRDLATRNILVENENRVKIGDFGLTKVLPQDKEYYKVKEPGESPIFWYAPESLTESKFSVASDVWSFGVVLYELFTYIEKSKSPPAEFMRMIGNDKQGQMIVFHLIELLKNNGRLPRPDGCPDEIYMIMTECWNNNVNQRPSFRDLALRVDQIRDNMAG
Procedure: Example A. JAK2 LanthaScreen […] Binding Assay
JAK2 JH1 binding assay utilizes catalytic domain (JH1, amino acids 826-1132) of human JAK2 expressed as N-terminal FLAG-tagged, biotinylated protein in a baculovirus expression system (Carna Biosciences, Product #08-445-20N). The assay was conducted in black 384-well polystyrene plates in a final reaction volume of 20 μL. JAK2 JH1 (1.5 nM) was incubated with compounds (100 nL serially diluted in DMSO) in the presence of 50 nM fluorescent JAK2-JH1 tracer and 0.5 nM Streptavidin-Tb cryptate (Cisbio Part #610SATLB) in assay buffer (50 mM Tris, pH=7.5, 10 mM MgCl2, 0.01% Brij-35, 0.1% BSA, 1 mM EGTA, […] and 5 mM DTT). Non-specific binding was accessed in the presence of 2 mM ATP. After incubation for 2 hours at 25° C., LanthaScreen signals were read on a PHERAstar FS plate reader (BMG LABTECH).
Data was analyzed with IDBS XLfit and GraphPad Prism 5.0 software using a four parameter dose response curve to determine IC50 for each compound.

[3] = target: T3, pseudo-kinase domain (JH2, amino-acids 536-812) of human V617F mutant JAK2 (Homo sapiens, UniProt O60674, F794H/V617F/W659A/W777A); test: JAK2 LanthaScreen JH2-V617F Binding Assay; settings: 50 nM tracer, read-out: JH2BINDING—V617F IC50
T3 construct: pseudo-kinase domain (JH2, amino-acids 536-812 with 3 surface mutations W659A, W777A, F794H); His (C); purchased BPS Bioscience 79498; host or cells: baculovirus expression system
T3 sequence (O60674 536-812 V617F/W659A/W777A/F794H): as the sequence (O60674 536-812 W659A/W777A/F794H) above, with V82F counted along it
Procedure: Example C. JAK2 LanthaScreen JH2-V617F Binding Assay
as §1, with “JH2-V617F” for “JH2-WT”, “V617F mutant” for “Wild Type”, “#79498).” for “#79463).”, “JH2-V617F (0.26” for “JH2-WT (0.145”

[4] = target: T4, catalytic domain (JH1, amino acids 808-1132) of human JAK2 (Homo sapiens, UniProt O60674); test: JAK2 HTRF Enzyme Activity Assay; assay type: biochemical; settings: ATP 30 μM; read-out: ENZ 30UMATP IC50
T4 construct: catalytic domain (JH1, amino acids 808-1132) of human JAK2; His (N); purchased BPS Bioscience 40450; host or cells: baculovirus expression system
T4 sequence (O60674 808-1132): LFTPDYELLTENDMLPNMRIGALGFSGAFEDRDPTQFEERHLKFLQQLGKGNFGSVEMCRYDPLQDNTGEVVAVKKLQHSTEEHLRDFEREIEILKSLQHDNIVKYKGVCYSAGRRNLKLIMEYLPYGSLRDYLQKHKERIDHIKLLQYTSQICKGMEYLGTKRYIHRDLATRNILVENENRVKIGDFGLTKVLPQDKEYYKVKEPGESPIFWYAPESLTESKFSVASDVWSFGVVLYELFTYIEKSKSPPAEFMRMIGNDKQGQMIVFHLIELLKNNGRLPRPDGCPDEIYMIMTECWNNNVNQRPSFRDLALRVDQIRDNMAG
Procedure: Example D. JAK2 HTRF Enzyme Activity Assay
JAK2 enzyme activity assays utilize catalytic domain (JH1, amino acids 808-1132) of human JAK2 expressed as N-terminal His-tagged protein in a baculovirus expression system (BPS Bioscience, Catalog #40450). The assays was conducted in black 384-well polystyrene plates in a final reaction volume of 20 μL. JAK2 (0.015 nM) was incubated with compounds (100 nL serially diluted in DMSO) in the presence of ATP (30 μM or 1 mM) and 500 nM Biotin-labeled EQEDEPEGDYFEWLE (SEQ ID NO.: 1) peptide (BioSource International, custom synthesis) in assay buffer (50 mM Tris, pH=7.5, 10 mM MgCl2, 0.01% Brij-35, 0.1% BSA, 1 mM EGTA, 5% Glycerol and 5 mM DTT) for 60 minutes at 25° C. The reactions were stopped by the addition of 10 μL of detection buffer (50 mM Tris, pH 7.8, 0.5 mg/mL BSA, 150 mM NaCl), supplemented with EDTA, LANCE Eu-W1024 anti-phosphotyrosine (PY20), (PerkinElmer, Catalog #AD0067) and Streptavidin SureLight APC (PerkinElmer Catalog #CR130-100), for a final concentration of 15 mM, 1.5 nM and 75 nM, respectively. HTRF signals were read after 30 minutes incubation at room temperature on a PHERAstar FS plate reader (BMG LABTECH). Data was analyzed with IDBS XLfit and GraphPad Prism 5.0 software using a four parameter dose response curve to determine IC50 for each compound. The compounds of the disclosure were tested in one or more of the assays described in Examples A-D, and the resulting data are shown in Table A.

[5] = from [2H]C([2H])([2H])n1c(=O)n([C@H]2CC[C@@](CC=C)(NC(=O)[C@H]3C[C@H]3F)CC2)c2c3c(-c4ccc(OCCC=C)cc4)cn(S(=O)(=O)c4ccccc4)c3ncc21, rcm bond, Grubbs catalyst 2nd generation, dichloromethane, 19.0 mM, 40.0 °C

Compound	IC50 [1]	IC50 [2]	IC50 [3]	IC50 [4]	ring closure, yield of all isomers [5]
N-((3^1r,3^4s)-2^7-(3-Methoxy-1-methyl-1H-pyrazol-4-yl)-2^3-(methyl-d3)-2^2-oxo-2^1,2^2,2^3,2^6-tetrahydro-9-oxa-2(8,1)-imidazo[4,5-d]pyrrolo[2,3-b]pyridina-1(1,4)-benzena-3(1,4)-cyclohexanacyclononaphane-3^4-yl)cyclopropanecarboxamide [Example 4]	≤ 10 nM	> 1000 nM	≤ 10 nM	> 1000 nM	–
[2H]C([2H])([2H])n1c(=O)n2c3c4c(cn(S(=O)(=O)c5ccccc5)c4ncc31)-c1ccc(cc1)OCCC=CC[C@]1(NC(=O)[C@H]3C[C@H]3F)CC[C@@H]2CC1	–	–	–	–	98%
[2H]C([2H])([2H])n1c(=O)n2c3c4c(c(-c5cnn(CC(F)F)c5)[nH]c4ncc31)-c1ccc(cc1)OCC/C=C/C[C@]1(NC(=O)[C@H]3C[C@H]3F)CC[C@@H]2CC1 [Example 11, (1R,2R)-N-((3^1S,3^4s,E)-2^7-(1-(2,2-difluoroethyl)-1H-pyrazol-4-yl)-2^3-(methyl-d3)-2^2-oxo-2^1,2^2,2^3,2^6-tetrahydro-9-oxa-2(8,1)-imidazo[4,5-d]pyrrolo[2,3-b]pyridina-1(1,4)-benzena-3(1,4)-cyclohexanacyclononaphan-5-en-3^4-yl)-2-fluorocyclopropane-1-carboxamide]	≤ 10 nM	500 to 1000 nM	≤ 10 nM	> 1000 nM	–
[2H]C([2H])([2H])n1c(=O)n2c3c4c(c(-c5cn(C)nc5OC)[nH]c4ncc31)-c1ccc(cc1)OCC/C=C/C[C@]1(NC(=O)C3CC3)CC[C@@H]2CC1 [Example 2, N-((3^1s,3^4s,E)-2^7-(3-Methoxy-1-methyl-1H-pyrazol-4-yl)-2^3-(methyl-d3)-2^2-oxo-2^1,2^2,2^3,2^6-tetrahydro-9-oxa-2(8,1)-imidazo[4,5-d]pyrrolo[2,3-b]pyridina-1(1,4)-benzena-3(1,4)-cyclohexanacyclononaphan-5-en-3^4-yl)cyclopropanecarboxamide]	≤ 10 nM	> 1000 nM	≤ 10 nM	> 1000 nM	–
[2H]C([2H])([2H])n1c(=O)n2c3c4c(c(-c5cn(C(C)C)nc5F)[nH]c4ncc31)-c1ccc(cc1)OCC/C=C/C[C@]1(NC(=O)[C@H]3C[C@H]3F)CC[C@@H]2CC1 [Example 13, (1R,2R)-2-fluoro-N-((3^1S,3^4s,E)-2^7-(3-fluoro-1-isopropyl-1H-pyrazol-4-yl)-2^3-(methyl-d3)-2^2-oxo-2^1,2^2,2^3,2^6-tetrahydro-9-oxa-2(8,1)-imidazo[4,5-d]pyrrolo[2,3-b]pyridina-1(1,4)-benzena-3(1,4)-cyclohexanacyclononaphan-5-en-3^4-yl)cyclopropane-1-carboxamide]	≤ 10 nM	> 1000 nM	≤ 10 nM	> 1000 nM	–
[2H]C([2H])([2H])n1c(=O)n2c3c4c(c(-c5cnn(CCOC)c5)[nH]c4ncc31)-c1ccc(cc1)OCC/C=C/C[C@]1(NC(=O)[C@H]3C[C@H]3F)CC[C@@H]2CC1 [Example 8, (1R,2R)-2-Fluoro-N-((3^1S,3^4s,E)-2^7-(1-(2-methoxyethyl)-1H-pyrazol-4-yl)-2^3-(methyl-d3)-2^2-oxo-2^1,2^2,2^3,2^6-tetrahydro-9-oxa-2(8,1)-imidazo[4,5-d]pyrrolo[2,3-b]pyridina-1(1,4)-benzena-3(1,4)-cyclohexanacyclononaphan-5-en-3^4-yl)cyclopropane-1-carboxamide]	≤ 10 nM	500 to 1000 nM	≤ 10 nM	500 to 1000 nM	–
[2H]C([2H])([2H])n1c(=O)n2c3c4c(c(-c5cn(C)nc5OC)[nH]c4ncc31)-c1ccc(cc1)CNCC[C@]1(NC(=O)C3CC3)CC[C@@H]2CC1 [Example 7, N-((3^1s,3^4s)-2^7-(3-Methoxy-1-methyl-1H-pyrazol-4-yl)-2^3-(methyl-d)-2^2-oxo-2^1,2^2,2^3,2^6-tetrahydro-6-aza-2(8,1)-imidazo[4,5-d]pyrrolo[2,3-b]pyridina-1(1,4)-benzena-3(1,4)-cyclohexanacycloheptaphane-3^4-yl)cyclopropanecarboxamide]	≤ 10 nM	> 1000 nM	10 to 100 nM	> 1000 nM	–
